Reference: US10757943B2, “Thidiazuron mixtures and uses thereof” (Valent BioSciences LLC, priority 2017, dated 2020)

How the values were obtained:
Format in all cases: in vivo
Concord grape vines [1] = assay: Bud break and shoot growth of potted dormant Concord grape vines in the greenhouse (Example 1); conditions: for % bud break (vines with at least one bud break): hydrogen cyanamide 10,000 ppm, 17-0-0 197,100 ppm, 15-0-0 239,060 ppm, ACC 1,000 ppm; for % bud break (vines with at least one bud break) / 50% Bud Break to Harvest / Initial to 50% Bud Break / 25% Bud Break (DAT) / 50% Bud Break (DAT): thidiazuron 300 ppm unless label states other; for Dry Weight (g)/25% Bud Break to Harvest (d): combined shoot dry weight at 49 DAT normalised by days from 25% bud break to harvest; for Dry Weight (g)/50% Bud Break to Harvest (d): combined shoot dry weight at 49 DAT normalised by days from 50% bud break to harvest; for Fresh Weight (g)/50% Bud Break to Harvest (d): combined shoot fresh weight at 49 DAT normalised by days from 50% bud break to harvest; for 50% Bud Break to Harvest: harvest at day 49; for Initial to 50% Bud Break: synchrony of bud break; for 25% Bud Break (DAT): time to 25% bud break; for 50% Bud Break (DAT): time to 50% bud break
Description: An aqueous 50% hydrogen cyanamide solution (Sigma-Aldrich, St. Louis, Mo. USA) was used as the source of hydrogen cyanamide. The commercial product, Dormex® contains 50% hydrogen cyanamide (w/v) in water.
Erger® was used as the source of 15-0-0 fertilizer. (Erger is a registered trademark of Valagro S.P.A., Italy and is available from Helena Chemical Company, Collierville, Tenn., USA). Erger® contains 15% total nitrogen as 3.1% ammoniacal nitrogen, 5.8% nitrate nitrogen and 6.1% urea nitrogen and 3.3% calcium derived from ammonium nitrate, calcium nitrate and urea. As used herein, the term “15-0-0 fertilizer” refers to the Erger® formulation above and all formulations described in International PCT application publication WO/2001/037653A2 by Valagro S.P.A., Italy, which is incorporated, herein, in its entirety.
CAN-17 was used as the source of 17-0-0 fertilizer. CAN-17 contains 17% total nitrogen as 4.6% ammonium nitrogen and […] nitrate nitrogen and 1.3% urea nitrogen and 8.8% calcium derived from ammonium nitrate and calcium nitrate. CAN-17 is available from J.R. Simplot Company (Boise, Id., USA).
To assess the ability of mixtures of the invention to promote and synchronize bud break these mixtures were applied to Concord grape vines and examined for bud break (initiation of growth) and subsequent shoot development. Specifically, 1 year old dormant bare rooted Concord grape vines were planted in pots containing Pro-Mix® BX potting soil (Pro-Mix is a registered trademark of and available from Premier Horticulture Ltd.) and pruned to 5 nodes on a single shoot. Aqueous solutions of thidiazuron, hydrogen cyanamide, 15-0-0 fertilizer, 17-0-0 fertilizer and 1-aminocyclopropane-1-carboxylic acid (“ACC”), and mixtures thereof were each applied individually or sequentially or co-applied to the first-year wood of separate Concord grape vines. Plants were grown in the greenhouse for 49 days and evaluated for percent of vines showing bud break, or relief from dormancy, periodically between 7 days and the conclusion of the experiment. […] At 49 days after treatment (DAT), the plants were sacrificed and measured for total number of flower clusters, total new shoot length, longest new shoot, combined new shoot fresh weight and combined new shoot dry weight. New shoot growth is the growth arising from the dormant buds not including the woody growth that was planted and gave rise to the new growth.
Synergy is calculated by the Abbott method: %Cexp=A+B−(AB/100), where % Cexp is the expected efficacy and in which A and B are the speed of bud break or shoot length or shoot weight given by the single active ingredients. If the ratio between the experimentally observed efficacy of the mixture Cobs and the expected efficacy of the mixture is greater than 1, synergistic interactions are present in the mixture” (Gisi, Synergistic Interaction of Fungicides in Mixtures, The American Phytopathological Society, 86:11, 1273-1279,1996).

[2] = test system: Red Flame seedless grape vines; assay: Bud break and shoot length of field-grown Red Flame seedless grape vines (Example 2); conditions: for Broken Buds per plant (Average Buds Broken per Spur): 31 days after treatment; for % Broken Buds / Total Shoot Length: 48 days after treatment
Procedure: To assess the ability of mixtures of the invention to promote and synchronize bud break these mixtures were applied to field-grown Red Flame seedless grape vines and examined for bud break (initiation of growth) and subsequent shoot development. Thidiazuron, hydrogen cyanamide, 17-0-0 fertilizer, and mixtures thereof were each applied individually or sequentially (co-applied) to the separate spurs of Red Flame seedless grape vines. Plants were evaluated for bud break at 31 days after treatment, for percent bud break and total new shoot length at 48 days after treatment. Results of these evaluations can be seen below in Tables 4 and 5.

Concord grape vines [3] = assay: Bud break and harvest weight of endo-dormant two-year-old Concord grape vines in the greenhouse (Example 4); conditions: thidiazuron ppm and 17-0-0 % as in label, 15-0-0 65,880 ppm; for Fresh Shoot Weight (g)/Plant: new growth at close of study
Description: Two-year-old Concord grape vines were purchased commercially. These vines had just lost their leaves and were shipped shortly after they were dug at the nursery. Thus, the vines had not fulfilled their chilling requirement and were considered endo-dormant. The vines were potted individually into one-gallon pots containing ProMix® BX immediately upon receipt and subsequently pruned back to the five proximal buds on the one-year old wood. Within two hours of pruning, treatment solutions were applied using a foam paint brush to the remaining one-year old wood, including the cut end from pruning. Two treatments, water and hydrogen cyanimide, which acted as negative and positive controls, respectively, were included in all studies.
Treatment solutions were made fresh in water and contained 1% (v/v) non-ionic surfactant. In all cases, two treatment solutions were applied to the plants. Where a single component was used for a treatment, the first application solution was water containing surfactant; in the cases where combination treatments were made to the same plant, the first treatment solution was allowed to dry prior to applying the second.
The treated plants were kept in a conventional greenhouse under supplemental lighting. Greenhouse conditions were 65:60° F. Day:Night temperature with a 16:8 hour photoperiod. Relief from dormancy was assessed every two days during the course of the study. Dormancy was considered relieved upon the emergence of a green bud. Both the number of ‘broken buds’ per plant and the date of relief of plants from dormancy were assessed. At the close of the study, new growth was removed from each of the treated plants and weighed.

[4] = 49 days post treatment, thidiazuron ppm as in label, other concentrations as in Table 1, listed as Thidiazuron (300)
[5] = 49 days post treatment, thidiazuron ppm as in label, other concentrations as in Table 1, listed as Thidiazuron (1000)
[6] = other concentrations as in Table 1, listed as Thidiazuron (1000)
[7] = other concentrations as in Table 1
[8] = other concentrations as in Table 1, listed as 1,000 ppm thidiazuron
[9] = hydrogen cyanamide 10,000 ppm, thidiazuron 300 ppm, 17-0-0 197,100 ppm

O=C(Nc1ccccc1)Nc1cnns1 [Thidiazuron, 1-Phenyl-3-(1,2,3-thiadiazol-5-yl)urea]
% bud break (vines with at least one bud break) (Concord grape vines [1]; 7 DAT): 0% | % bud break (vines with at least one bud break) (Concord grape vines [1]; 10 DAT): 0.0% | % bud break (vines with at least one bud break) (Concord grape vines [1]; 10 DAT, listed as Thidiazuron (1,000)): 44.4% | % bud break (vines with at least one bud break) (Concord grape vines [1]; 13 DAT): 0.0% | % bud break (vines with at least one bud break) (Concord grape vines [1]; 13 DAT, listed as Thidiazuron (1,000)): 77.8% | % bud break (vines with at least one bud break) (Concord grape vines [1]; 15 DAT): 0.0% | % bud break (vines with at least one bud break) (Concord grape vines [1]; 15 DAT, listed as Thidiazuron (1,000)): 88.9% | % bud break (vines with at least one bud break) (Concord grape vines [1]; 17 DAT): 11.1% | % bud break (vines with at least one bud break) (Concord grape vines [1]; 17 DAT, listed as Thidiazuron (1,000)): 88.9% | % bud break (vines with at least one bud break) (Concord grape vines [1]; 20 DAT): 11.1% | % bud break (vines with at least one bud break) (Concord grape vines [1]; 20 DAT, listed as Thidiazuron (1,000)): 100.0% | % bud break (vines with at least one bud break) (Concord grape vines [1]; 22 DAT): 22.2% | % bud break (vines with at least one bud break) (Concord grape vines [1]; 22 DAT, listed as Thidiazuron (1,000)): 100.0% | % bud break (vines with at least one bud break) (Concord grape vines [1]; 24 DAT): 33.3% | % bud break (vines with at least one bud break) (Concord grape vines [1]; 24 DAT, listed as Thidiazuron (1,000)): 100.0% | % bud break (vines with at least one bud break) (Concord grape vines [1]; 27 DAT): 33.3% | % bud break (vines with at least one bud break) (Concord grape vines [1]; 27 DAT, listed as Thidiazuron (1,000 ppm)): 100.0% | % bud break (vines with at least one bud break) (Concord grape vines [1]; 29 DAT): 33.3% | % bud break (vines with at least one bud break) (Concord grape vines [1]; 29 DAT, listed as Thidiazuron (1,000 ppm)): 100.0% | % bud break (vines with at least one bud break) (Concord grape vines [1]; 31 DAT): 33.3% | % bud break (vines with at least one bud break) (Concord grape vines [1]; 31 DAT, listed as Thidiazuron (1,000 ppm)): 100.0% | % bud break (vines with at least one bud break) (Concord grape vines [1]; 34 DAT): 33.3% | % bud break (vines with at least one bud break) (Concord grape vines [1]; 34 DAT, listed as Thidiazuron (1,000 ppm)): 100.0% | % bud break (vines with at least one bud break) (Concord grape vines [1]; 36 DAT): 44.4% | % bud break (vines with at least one bud break) (Concord grape vines [1]; 36 DAT, listed as Thidiazuron (1,000 ppm)): 100.0% | % bud break (vines with at least one bud break) (Concord grape vines [1]; 38 DAT): 55.6% | % bud break (vines with at least one bud break) (Concord grape vines [1]; 38 DAT, listed as Thidiazuron (1,000 ppm)): 100.0% | % bud break (vines with at least one bud break) (Concord grape vines [1]; 41 DAT): 55.6% | % bud break (vines with at least one bud break) (Concord grape vines [1]; 41 DAT, listed as Thidiazuron (1,000 ppm)): 100.0% | % bud break (vines with at least one bud break) (Concord grape vines [1]; 43 DAT): 66.7% | % bud break (vines with at least one bud break) (Concord grape vines [1]; 43 DAT, listed as Thidiazuron (1,000 ppm)): 100.0% | % bud break (vines with at least one bud break) (Concord grape vines [1]; 49 DAT): 77.8% | % bud break (vines with at least one bud break) (Concord grape vines [1]; 49 DAT, listed as Thidiazuron (1,000 ppm)): 100.0% | Total # of Flower Clusters (Concord grape vines [1]; 49 days post treatment, thidiazuron ppm as in label, other concentrations as in Table 1): 0.1 | Combined Shoot Dry Weight (Concord grape vines [1]; [4]): 1.5 g | Combined Shoot Fresh Weight (Concord grape vines [1]; [4]): 8.2 g | Longest Shoot Length (Concord grape vines [1]; [4]): 20.1 cm | Total Shoot Length (Concord grape vines [1]; [4]): 28.3 cm | Combined Shoot Dry Weight (Concord grape vines [1]; [5]): 6.9 g | Combined Shoot Fresh Weight (Concord grape vines [1]; [5]): 31.8 g | Longest Shoot Length (Concord grape vines [1]; [5]): 68.3 cm | Total Shoot Length (Concord grape vines [1]; [5]): 88.8 cm | Dry Weight (g)/25% Bud Break to Harvest (d) (Concord grape vines [1]; listed as Thidiazuron (300)): 0.06 g/day | Dry Weight (g)/25% Bud Break to Harvest (d) (Concord grape vines [1]; listed as Thidiazuron (1000)): 0.17 g/day | Dry Weight (g)/50% Bud Break to Harvest (d) (Concord grape vines [1]; listed as Thidiazuron (300)): 0.13 g/day | Dry Weight (g)/50% Bud Break to Harvest (d) (Concord grape vines [1]; listed as Thidiazuron (1000)): 0.18 g/day | Fresh Weight (g)/50% Bud Break to Harvest (d) (Concord grape vines [1]; listed as Thidiazuron (300)): 0.68 g/day | Fresh Weight (g)/50% Bud Break to Harvest (d) (Concord grape vines [1]; listed as Thidiazuron (1000)): 0.84 g/day | 50% Bud Break to Harvest (Concord grape vines [1]; other concentrations as in Table 1, listed as Thidiazuron (300)): 12 days | 50% Bud Break to Harvest (Concord grape vines [1]; [6]): 38 days | 50% Bud Break to Harvest (Concord grape vines [1]; other concentrations as in Table 1, listed as thidiazuron): 12 days | Initial to 50% Bud Break (Concord grape vines [1]; [7]): 21 days | Initial to 50% Bud Break (Concord grape vines [1]; [8]): 3 days | Initial to 50% Bud Break (Concord grape vines [1]; [6]): 3 days | 25% Bud Break (DAT) (Concord grape vines [1]; [7]): 23 DAT | 25% Bud Break (DAT) (Concord grape vines [1]; [6]): 9 DAT | 50% Bud Break (DAT) (Concord grape vines [1]; [7]): 37 DAT | 50% Bud Break (DAT) (Concord grape vines [1]; [8]): 11 DAT | 50% Bud Break (DAT) (Concord grape vines [1]; [6]): 11 DAT | Broken Buds per plant (Average Buds Broken per Spur) [2, 9]: 0.1 | Broken Buds per plant (Average Buds Broken per Spur) ([2]; thidiazuron 1,000 ppm): 0.4 | % Broken Buds [2, 9]: 80% | Total Shoot Length [2, 9]: 15.38 | % Broken Buds ([2]; thidiazuron 1,000 ppm): 78.1% | Total Shoot Length ([2]; thidiazuron 1,000 ppm): 24.3 | Fresh Shoot Weight (g)/Plant (Concord grape vines [3]; listed as Thidiazuron (100)): 15.53 g | Fresh Shoot Weight (g)/Plant (Concord grape vines [3]; listed as Thidiazuron (300)): 13.15 g | Fresh Shoot Weight (g)/Plant (Concord grape vines [3]; listed as Thidiazuron (1000)): 22.45 g | 50% Bud Break (DAT) (Concord grape vines [3]; listed as Thidiazuron (100)): 33 DAT | 100% Bud Break (DAT) (Concord grape vines [3]; listed as Thidiazuron (100)): 44 DAT | Initial to 50% Bud Break (Concord grape vines [3]; listed as Thidiazuron (100)): 7 | Number of Buds Broken/Plant (Concord grape vines [3]; listed as Thidiazuron (100)): 2 | 50% Bud Break (DAT) (Concord grape vines [3]; listed as Thidiazuron (300)): 28 DAT | 100% Bud Break (DAT) (Concord grape vines [3]; listed as Thidiazuron (300)): 48 DAT | Initial to 50% Bud Break (Concord grape vines [3]; listed as Thidiazuron (300)): 14 | Number of Buds Broken/Plant (Concord grape vines [3]; listed as Thidiazuron (300)): 2.125 | 50% Bud Break (DAT) (Concord grape vines [3]; listed as Thidiazuron (1000)): 21 DAT | 100% Bud Break (DAT) (Concord grape vines [3]; listed as Thidiazuron (1000)): 37 DAT | Initial to 50% Bud Break (Concord grape vines [3]; listed as Thidiazuron (1000)): 7 | Number of Buds Broken/Plant (Concord grape vines [3]; listed as Thidiazuron (1000)): 4.5
